Paper PMC3541007 (ChemMedChem, 2009)
Values joined by “and” are separate entries in the source; they are usually repeats but may differ in a detail not shown here. Equal values may be shown once. Read-outs that look alike come from different tables or passages of the source.

Assays:
[1] = tested on: M. tuberculosis H37Rv inhA (S94A); type: cell-based, Mycobacterium tuberculosis
[2] = tested on: M. tuberculosis clinical isolate 5071; type: cell-based; details: multi-drug resistant isolate, four weeks
[3] = tested on: M. tuberculosis clinical isolate 12081; type: cell-based; details: for MIC clinical isolate 12081: multi-drug resistant isolate, four weeks
[4] = tested on: M. tuberculosis H37Rv ΔkatG; type: cell-based, Mycobacterium tuberculosis

Compound	MIC H37Rv inhA (S94A) [1]	MIC clinical isolate 5071 [2]	MIC clinical isolate 5071 ([2]; value in parentheses)	MIC clinical isolate 12081 [3]	MIC clinical isolate 12081 ([3]; value in parentheses)	times less active against the ΔkatG mutant [4]	fold loss in potency versus InhA(S94A) strain compared to wild-type [1]	fold resistance of strain 12081 ([3]; MIC ratio vs wild-type strain)
5-n-butyltriclosan [Compound 10]	37 (120) µg/ml and 37 (120) µM	4.7 µg/mL	15 µM	37 µg/mL	120 µM	–	–	–
NNC(=O)c1ccncc1 [INH, isoniazid]	0.50 (3.6) µg/ml and 0.50 (3.6) µM	–	–	–	–	more than 3000 times	8 fold	17 fold
